This assay concerns the target T1, Human SST5 somatostatin receptor (SSTR5) (Homo sapiens, UniProt P35346).
T1 construct: expressed in transfected cells; host or cells: HEK-293 EBNA
The experiment in a line: Filter plate assay for SST5 receptor, displacement of [125I]SST-14. The assay is classed as binding. The procedure, abridged:
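HEK-293 EBNA membranes expressing human SST5 (5.5 μg) incubated 60 min at 25 °C with 4 nM [125I]SST-14 and compound in pH 7.5 Tris/EGTA/MgCl2/sucrose buffer. Bound radioactivity collected on PEI-coated glass fiber filters and counted; triplicate 1:5 dilution series from 125 μM, non-specific binding with excess cold ligand.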

The record followed here is patent US20080280837A1, “Biologically Active Compounds with Anti-Angiogenic Properties” (priority 2004, published 2008).

T1 sequence (P35346 whole entry): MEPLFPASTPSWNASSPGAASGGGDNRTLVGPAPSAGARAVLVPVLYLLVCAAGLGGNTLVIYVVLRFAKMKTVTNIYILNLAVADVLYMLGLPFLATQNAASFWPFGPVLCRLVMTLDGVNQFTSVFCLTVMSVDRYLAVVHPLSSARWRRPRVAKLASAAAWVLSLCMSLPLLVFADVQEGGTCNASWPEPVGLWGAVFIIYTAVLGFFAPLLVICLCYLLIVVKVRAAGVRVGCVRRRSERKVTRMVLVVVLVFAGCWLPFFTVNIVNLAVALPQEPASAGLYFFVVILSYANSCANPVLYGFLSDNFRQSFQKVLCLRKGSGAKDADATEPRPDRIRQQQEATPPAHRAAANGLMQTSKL

On to `NCCC(=O)N[C@H]1CO[C@H](COCc2ccc(-c3ccccc3)cc2)[C@@H](O)[C@H]1OCc1ccc(Cl)cc1` [Compound 124], for which the “SSTR5 Inhib 0.5 uM % (inhibition of binding of SST-14 to SSTR5)” value (“SSTR5 Inhib 0.5 uM %” below) came to 50% and the “SSTR5 Inhib 10 uM % (inhibition of binding of SST-14 to SSTR5)” value (from here on “SSTR5 Inhib 10 uM %”) was 80%.

With `CSC1O[C@H](COCc2ccc(Cl)cc2)[C@@H](O)[C@@H](OCc2ccc3ccccc3c2)[C@H]1NC(=O)CCNC(=N)N` (some centres unmarked) [Compound 125], the “SSTR5 Inhib 0.5 uM %” value was determined as 34% and the “SSTR5 Inhib 10 uM %” value is 80%.

As for `CO[C@H]1[C@H](O)[C@@H](COCc2ccc3ccccc3c2)OC(OCc2ccc3ccccc3c2)[C@@H]1NC(=O)CNC(=N)N` (some centres unmarked) [Compound 126], the “SSTR5 Inhib 0.5 uM %” value amounted to 57% and the “SSTR5 Inhib 10 uM %” value is 80%.

Take `CSC1O[C@H](COCc2ccc(-c3ccccc3)cc2)[C@@H](O)[C@@H](OCc2ccc3ccccc3c2)[C@H]1NC(=O)CCCN` (some centres unmarked) [Compound 127]: the “SSTR5 Inhib 0.5 uM %” value amounted to 48% and the “SSTR5 Inhib 10 uM %” value was determined as 80%.

For `CSC1O[C@H](COCc2ccccc2)[C@@H](O)[C@@H](OCc2ccc3ccccc3c2)[C@H]1NC(=O)CCNC(=N)N` (some centres unmarked) [Compound 128], the “SSTR5 Inhib 0.5 uM %” value was 28% and the “SSTR5 Inhib 10 uM %” value is listed as 80%.

`COC[C@H]1OC(OCc2ccc(-c3ccccc3)cc2)[C@H](NC(=O)CNC(=N)N)[C@@H](OCc2ccc(-c3ccccc3)cc2)[C@@H]1O` (some centres unmarked) [Compound 129]: the “SSTR5 Inhib 0.5 uM %” value amounted to 36% and the “SSTR5 Inhib 10 uM %” value came out at 80%.

Take `COC[C@H]1OC(OCc2ccc(-c3ccccc3)cc2)[C@H](NC(=O)CCCNC(=N)N)[C@@H](OCc2ccc(-c3ccccc3)cc2)[C@@H]1O` (some centres unmarked) [Compound 130]: the “SSTR5 Inhib 0.5 uM %” value amounted to 40% and the “SSTR5 Inhib 10 uM %” value turned out to be 80%.

Take `CSC1O[C@H](COCc2ccc3ccccc3c2)[C@@H](O)[C@@H](OCc2ccc3ccccc3c2)[C@H]1NC(=O)CNC(=N)N` (some centres unmarked) [Compound 131]: the “SSTR5 Inhib 0.5 uM %” value turned out to be 52% and the “SSTR5 Inhib 10 uM %” value is given as 80%.

For `COC[C@H]1OC(OCCc2ccccc2)[C@H](NC(=O)CCCNC(=N)N)[C@@H](OCc2ccc(-c3ccccc3)cc2)[C@@H]1O` (some centres unmarked) [Compound 132], the “SSTR5 Inhib 0.5 uM %” value turned out to be 39% and the “SSTR5 Inhib 10 uM %” value stood at 80%.

Consider `COC[C@H]1OC(OCc2ccc3ccccc3c2)[C@H](NC(=O)CNC(=N)N)[C@H](OCc2ccc(Cl)cc2)[C@@H]1O` (some centres unmarked) [Compound 133], for which the “SSTR5 Inhib 0.5 uM %” value is recorded as 24% and the “SSTR5 Inhib 10 uM %” value was determined as 80%.

For the molecule `COC1C(O)C(COCc2ccc(Cl)cc2)OC(OCc2ccc3ccccc3c2)C1NC(=O)CCCNC(=N)N` (centres unmarked) [Compound 134], the “SSTR5 Inhib 0.5 uM %” value stood at 55% and the “SSTR5 Inhib 10 uM %” value stood at 79%.

`COC[C@H]1OC(OCc2ccc3ccccc3c2)[C@H](NC(=O)CCCNC(=N)N)[C@@H](OCc2ccccc2)[C@@H]1O` (some centres unmarked) [Compound 135]: the “SSTR5 Inhib 0.5 uM %” value was determined as 45% and the “SSTR5 Inhib 10 uM %” value came to 79%.

In the case of `COC1C(O)C(COCc2ccc(-c3ccccc3)cc2)OC(OCc2ccc(-c3ccccc3)cc2)C1NC(=O)CCNC(=N)N` (centres unmarked) [Compound 136], the “SSTR5 Inhib 0.5 uM %” value amounted to 26% and the “SSTR5 Inhib 10 uM %” value stood at 79%.

On to `COC[C@H]1OC(OCc2ccc3ccccc3c2)[C@H](NC(=O)CNC(=N)N)[C@@H](OCc2ccc3ccccc3c2)[C@@H]1O` (some centres unmarked) [Compound 137], for which the “SSTR5 Inhib 0.5 uM %” value worked out at 43% and the “SSTR5 Inhib 10 uM %” value is 79%.

For `COC[C@H]1OC(OCc2ccccc2)[C@H](NC(=O)CCCNC(=N)N)[C@H](OCc2ccc(Cl)cc2)[C@@H]1O` (some centres unmarked) [Compound 138], the “SSTR5 Inhib 0.5 uM %” value worked out at 39% and the “SSTR5 Inhib 10 uM %” value came to 79%.

For the molecule `CSC1O[C@H](COCc2ccc(-c3ccccc3)cc2)[C@@H](O)[C@@H](OCc2ccc3ccccc3c2)[C@H]1NC(=O)CNC(=N)N` (some centres unmarked) [Compound 139], the “SSTR5 Inhib 0.5 uM %” value is given as 34% and the “SSTR5 Inhib 10 uM %” value worked out at 79%.

In the case of `COC1C(O)C(COCc2ccc3ccccc3c2)OC(OCCc2ccccc2)C1NC(=O)CCCN` (centres unmarked) [Compound 140], the “SSTR5 Inhib 0.5 uM %” value is on record as 38% and the “SSTR5 Inhib 10 uM %” value came out at 78%.

Consider `COC1C(O)C(COCc2ccc(Cl)cc2)OC(OCCc2ccccc2)C1NC(=O)CCCN` (centres unmarked) [Compound 141], for which the “SSTR5 Inhib 0.5 uM %” value was found to be 36% and the “SSTR5 Inhib 10 uM %” value amounted to 78%.

Turning to `CSC1O[C@H](COCc2ccc(Cl)cc2)[C@@H](O)[C@@H](OCc2ccccc2)[C@H]1NC(=O)CCNC(=N)N` (some centres unmarked) [Compound 142], the “SSTR5 Inhib 0.5 uM %” value was found to be 44% and the “SSTR5 Inhib 10 uM %” value is 78%.

On to `CO[C@H]1[C@H](O)[C@@H](COCc2ccc(Cl)cc2)OC(OCc2ccc3ccccc3c2)[C@@H]1NC(=O)CCCN` (some centres unmarked) [Compound 143], for which the “SSTR5 Inhib 0.5 uM %” value is 35% and the “SSTR5 Inhib 10 uM %” value amounted to 78%.

As to `COC[C@H]1OC(OCc2ccccc2)[C@H](NC(=O)CCCN)[C@@H](OCc2cccc(O)c2)[C@@H]1O` (some centres unmarked) [Compound 144], the “SSTR5 Inhib 0.5 uM %” value is reported as 45% and the “SSTR5 Inhib 10 uM %” value is 78%.

Take `COC[C@H]1OC(OCCc2ccccc2)[C@H](NC(=O)CCCN)[C@@H](OCc2ccc(Cl)cc2)[C@@H]1O` (some centres unmarked) [Compound 145]: the “SSTR5 Inhib 0.5 uM %” value is 45% and the “SSTR5 Inhib 10 uM %” value amounted to 78%.

On to `COC[C@H]1OC(OCc2ccc3ccccc3c2)[C@H](NC(=O)CCCN)[C@@H](OCc2cccc(O)c2)[C@@H]1O` (some centres unmarked) [Compound 146], for which the “SSTR5 Inhib 0.5 uM %” value stood at 40% and the “SSTR5 Inhib 10 uM %” value came out at 77%.

As for `COC[C@H]1OC(OCCc2ccccc2)[C@H](NC(=O)CCCN)[C@@H](OCc2cccc(O)c2)[C@@H]1O` (some centres unmarked) [Compound 147], the “SSTR5 Inhib 0.5 uM %” value turned out to be 40% and the “SSTR5 Inhib 10 uM %” value is 77%.

Consider `CSC1O[C@H](COCc2ccc(-c3ccccc3)cc2)[C@@H](O)[C@@H](OCc2ccc(Cl)cc2)[C@H]1NC(=O)CCCN` (some centres unmarked) [Compound 148], for which the “SSTR5 Inhib 0.5 uM %” value is reported as 38% and the “SSTR5 Inhib 10 uM %” value is reported as 76%.

On to `CSC1O[C@H](COCc2ccccc2)[C@@H](O)[C@@H](OCc2ccc(-c3ccccc3)cc2)[C@H]1NC(=O)CNC(=N)N` (some centres unmarked) [Compound 149], for which the “SSTR5 Inhib 0.5 uM %” value was determined as 35% and the “SSTR5 Inhib 10 uM %” value worked out at 76%.

Regarding `CSC1O[C@H](COCc2ccc(Cl)cc2)[C@@H](O)[C@@H](OCc2ccc3ccccc3c2)[C@H]1NC(=O)CNC(=N)N` (some centres unmarked) [Compound 150], the “SSTR5 Inhib 0.5 uM %” value came out at 42% and the “SSTR5 Inhib 10 uM %” value was 76%.

For the molecule `COC[C@H]1OC(OCc2ccc3ccccc3c2)[C@H](NC(=O)CCNC(=N)N)[C@@H](OCc2ccc3ccccc3c2)[C@@H]1O` (some centres unmarked) [Compound 151], the “SSTR5 Inhib 0.5 uM %” value came out at 36% and the “SSTR5 Inhib 10 uM %” value turned out to be 76%.

As for `CO[C@H]1[C@H](O)[C@@H](COCc2ccc(Cl)cc2)OC(OCc2ccc(Cl)cc2)[C@@H]1NC(=O)CCNC(=N)N` (some centres unmarked) [Compound 152], the “SSTR5 Inhib 0.5 uM %” value was found to be 47% and the “SSTR5 Inhib 10 uM %” value is 76%.

For `CSC1O[C@H](COCc2ccc(Cl)cc2)[C@@H](O)[C@@H](OCc2ccc3ccccc3c2)[C@H]1NC(=O)CCCN` (some centres unmarked) [Compound 153], the “SSTR5 Inhib 0.5 uM %” value turned out to be 34% and the “SSTR5 Inhib 10 uM %” value is 76%.

On to `COC[C@H]1OC(OCc2ccccc2)[C@H](NC(=O)CCCN)[C@H](OCc2ccccc2)[C@@H]1O` (some centres unmarked) [Compound 154], for which the “SSTR5 Inhib 0.5 uM %” value amounted to 33% and the “SSTR5 Inhib 10 uM %” value is given as 76%.

Turning to `CSC1O[C@H](COCc2ccccc2)[C@@H](O)[C@@H](OCc2ccc(-c3ccccc3)cc2)[C@H]1NC(=O)CCCNC(=N)N` (some centres unmarked) [Compound 155], the “SSTR5 Inhib 0.5 uM %” value is recorded as 46% and the “SSTR5 Inhib 10 uM %” value is recorded as 76%.

Regarding `CSC1O[C@H](COCc2ccccc2)[C@@H](O)[C@@H](OCc2ccc3ccccc3c2)[C@H]1NC(=O)CCCN` (some centres unmarked) [Compound 156], the “SSTR5 Inhib 0.5 uM %” value is given as 25% and the “SSTR5 Inhib 10 uM %” value worked out at 76%.

For `CO[C@H]1[C@H](O)[C@@H](COCc2ccc(-c3ccccc3)cc2)OC(OCc2ccc(-c3ccccc3)cc2)[C@@H]1NC(=O)CCCNC(=N)N` (some centres unmarked) [Compound 157], the “SSTR5 Inhib 0.5 uM %” value came to 20% and the “SSTR5 Inhib 10 uM %” value came to 75%.

As to `CSC1O[C@H](COCc2ccc3ccccc3c2)[C@@H](O)[C@@H](OCc2ccc(Cl)cc2)[C@H]1NC(=O)CCN` (some centres unmarked) [Compound 158], the “SSTR5 Inhib 0.5 uM %” value came out at 36% and the “SSTR5 Inhib 10 uM %” value came to 75%.

In the case of `COC[C@H]1OC(OCc2ccc(Cl)cc2)[C@H](NC(=O)CNC(=N)N)[C@H](OCc2ccc3ccccc3c2)[C@@H]1O` (some centres unmarked) [Compound 159], the “SSTR5 Inhib 0.5 uM %” value is 31% and the “SSTR5 Inhib 10 uM %” value amounted to 75%.

As to `COC[C@H]1OC(OCc2ccc(Cl)cc2)[C@H](NC(=O)CCCNC(=N)N)[C@@H](OCc2ccc3ccccc3c2)[C@@H]1O` (some centres unmarked) [Compound 160], the “SSTR5 Inhib 0.5 uM %” value was 40% and the “SSTR5 Inhib 10 uM %” value was 74%.
